Experimental data as given in patent publication US20190201377A1, “METHODS AND COMPOSITIONS FOR TREATMENT OF LIPID STORAGE DISORDERS” (Neurotrope BioScience, Inc., priority 2014, published 2019).

What was measured:
[1] = system: NPC3SV cells; type: cell-based, Human
[2] = system: M12 NPC1 CHO cells; assay: Cholesterol storage by filipin staining in NPC1 CHO (M12) cells; type: cell-based, Chinese hamster; details: for filipin fluorescence, % of levels in untreated cells: oleic/linoleic acids for 48 hours, M12 CHO cells
Description: The human wild-type fibroblast (GM05387), NPC1o fibroblast (GM09341), and NPC1 fibroblast (GM03123) cell lines were obtained from Coriell Cell Repositories (Camden, N.J.). The M12 Chinese hamster ovary (CHO) cell line and its wild-type parental line were obtained and cultured. Fibroblast cell lines were cultured in DMEM, and CHO cells were cultured in DMEM/F12 (50:50) medium, supplemented with 10% FBS, 2 mM L-glutamine, and 50 μg/ml gentamicin in a humidified incubator at 37° C. with 5% CO2. For filipin staining in transfected cells, cells were transfected with PKC or Rab9 using Fugene 6 according to the manufacturer's recommendations. After 48 hrs, cells were stained with filipin as we have previously described [3 7]. Cells were mounted onto slides using Fluoromount-G (Southern Biotech, Birmingham, Ala.) and analyzed on a Nikon Eclipse microscope fitted with a charge-coupled-device camera (Nikon, Melville, N.Y.). Images were acquired with MetaVue software and then deconvoluted using AutoDeblur software from AutoQuant Imaging, Inc (Troy, N.Y.). For quantitation of filipin fluorescence, cells were seeded at 3×10^5 cells/well in 6-well dishes and allowed to settle overnight, after which the medium was replaced with medium containing 10% lipoprotein deficient serum (LPDS) for 4 days. Cells were incubated with oleic/linoleic acids for 48 hours, […] for 24 hrs, or diazoxide for 72 hrs before fixing and staining with filipin as we have previously described. Images were acquired using the same exposure time for all samples. Fluorescence intensity was determined using the integrated intensity function of MetaVue software; at least 150 cells were quantitated for each sample and each experiment was repeated 3 times. For analysis of sphingolipid transport, cells were incubated with oleic/linoleic acids, DCP-LA, or PMA for 48 hours before BODIPY-LacCer staining was performed as previously described.

[3] = system: human NPC1 3123 cells; assay: Sphingolipid transport by BODIPY-LacCer staining; type: cell-based; details: 48 hours
Text: For filipin staining in transfected cells, cells were transfected with PKC or Rab9 using Fugene 6 according to the manufacturer's recommendations. After 48 hrs, cells were stained with filipin as we have previously described [3 7]. Cells were mounted onto slides using Fluoromount-G (Southern Biotech, Birmingham, Ala.) and analyzed on a Nikon Eclipse microscope fitted with a charge-coupled-device camera (Nikon, Melville, N.Y.). Images were acquired with MetaVue software and then deconvoluted using AutoDeblur software from AutoQuant Imaging, Inc (Troy, N.Y.). For quantitation of filipin fluorescence, cells were seeded at 3×10^5 cells/well in 6-well dishes and allowed to settle overnight, after which the medium was replaced with medium containing 10% lipoprotein deficient serum (LPDS) for 4 days. Cells were incubated with oleic/linoleic acids for 48 hours, DCPLA/DHA for 24 hrs, or diazoxide for 72 hrs before fixing and staining with filipin as we have previously described. Images were acquired using the same exposure time for all samples. Fluorescence intensity was determined using the integrated intensity function of MetaVue software; at least 150 cells were quantitated for each sample and each experiment was repeated 3 times. For analysis of sphingolipid transport, cells were incubated with oleic/linoleic acids, DCP-LA, or PMA for 48 hours before BODIPY-LacCer staining was performed as previously described.
To further confirm the positive effects of DCP-LA and fatty acids on the NPC1 phenotype, human NPC1 cells were treated with DCP-LA, fatty acids, or PMA to activate PKCs. […] Following absorption to the plasma membrane, the LacCer sphingolipid enters normal cells via endocytosis and eventually reaches the trans-Golgi network (TGN; [30]). […] Human NPC1 cells treated as indicated in FIG. 7 show a dramatic improvement in lipid transport with the BODIPY-LacCer effectively reaching the TGN (FIG. 7; arrows) compared to untreated cells that show only punctate, endosomal fluorescence (FIG. 7A).

[4] = system: NPC3-SV cells; type: cell-based, Human
[5] = system: NPC3-SV cells; assay: Stored cholesterol by filipin staining in NPC3-SV cells; type: cell-based, Human; details: for clearance of cholesterol from NPC1 cells: 48 h, FIG. 8, different drug concentrations; for stored cholesterol levels: 72 h, FIG. 9
Description: (§1) Cells are plated in 6-well dishes and treated with the appropriate compound (dissolved in DMSO) at the indicated dose daily for 48 hrs. Control cells receive DMSO. After 48 hrs cells are transferred to cover slips with fresh compound and grown for another 24 hrs. Cover slips are collected and processed for microscopy.
(§2) For detection of unesterified cholesterol in lysosomes, cells were fixed in formalin for 30 min at 4° C., washed 2×, 5 min in 0.9% NaCl, incubated for 45 min with 0.01% filipin in PBS at room temperature, and then washed 2×, 5 min. Fluorescence was observed using a Nikon Eclipse fluorescence microscope (Nikon, Melville, N.Y.) equipped with a CCD camera. Fluorescence signals were quantified using Nikon's imaging and quantitation software package NIS Elements, v.3.22.

[6] = system: human NPC24-SV cells; assay: Cholesterol accumulation by filipin staining in NPC24-SV cells; type: cell-based; details: for effect in cholesterol assay: NPC24-SV cells, FIG. 13
Description: as §1, §2

[7] = system: NPC cells; details: PMA treatment of NPC cells, earlier study [5]; cited from earlier work
[8] = system: human NPC24-SV cells; assay: Glycosphingolipid accumulation by VTB staining in NPC24-SV cells; type: cell-based
[9] = system: C57 NPC1 mice; assay: Treatment of C57 NPC1 mice, life span; type: in vivo, mouse
Description: A total of […] C57B16 NPC1 mice, mixed sex, were used. These mice were separated into […], Groups 1-5.
Bryostatin 1 (purity ≥:95%) from Aphios (Woburn, Mass.), 1 vial 2 mg, was solubilized in a 5% DMSO, 20% Solutol and 75% Saline solution and used as the study drug. The negative (vehicle) control is a 5% DMSO, 20% Solutol and 75% Saline solution. DCP-LA from Sigma-Aldrich: 5 mg oil/vial was used as an additional in vitro active compound. Bryostatin 1 (API) was stored at or below −20° C. and formulated as needed. The formulated bryostatin 1 was stored at 2° to 8° C. for less than 24 hour(s). The DCP-LA and the vehicle controls were stored at 2°-8° C.
The stock solution of bryostatin 1 is 1 Omg/ml in DMSO, which is kept at −80° C. in aliquots. The dosing formulation is made by diluting the stock first in DMSO, then adding solutol, and lastly saline-with more insoluble compounds, adding the drug stock to complete vehicle will cause the compound to come out of solution, so we make formulations stepwise. The dosing volume is always 100 μl. Mice weigh approximately 20 g.
The mice are dosed twice weekly (Mon and Thu) starting at 30 days for up to 150 days.
C57 NPC1 mice have an average life span of ˜110 days. By Day 70 mice reach an average weight of 18-22 grams. Untreated NPC1 mice develop ataxia and will begin to lose weight at ˜70 days (see FIG. 17). Ataxia (or lack of voluntary muscle control) is a clinical feature of NPC1 mice, which may be described as shaking. Treatment will be initiated at ˜30 days of age, average NPC mouse weight of 10 g. If the drug is efficacious injections will continue past day 70-80. An extension of life of about 20-30% will mean that animals will need to be treated up to day 130-150.

[10] = system: M12 NPC1 CHO cells; assay: Cholesterol esterification assay in M12 NPC1 CHO cells; type: cell-based, Chinese hamster; details: for esterification levels over untreated cells: 50 μg/ml fatty acid for 2 days followed by expression of PKC ε
Description: The preparation of [3H] oleate substrate and esterification assays were performed as previously described. Cells were treated with 50 μg/ml fatty acid for 2 days and then transfected with […] or PKCε for 24 hrs before esterification assays. All values were generated in triplicate and normalized for total cell protein.

[11] = system: human NPC1 3123 cells; assay: Cholesterol storage by filipin staining in human NPC1 3123 fibroblasts; type: cell-based; details: oleic/linoleic acids for 48 hours
Description: The human wild-type fibroblast (GM05387), NPC1o fibroblast (GM09341), and NPC1 fibroblast (GM03123) cell lines were obtained from Coriell Cell Repositories (Camden, N.J.). The M12 Chinese hamster ovary (CHO) cell line and its wild-type parental line were obtained and cultured. Fibroblast cell lines were cultured in DMEM, and CHO cells were cultured in DMEM/F12 (50:50) medium, supplemented with 10% FBS, 2 mM L-glutamine, and 50 μg/ml gentamicin in a humidified incubator at 37° C. with 5% CO2. For filipin staining in transfected cells, cells were transfected with PKC or Rab9 using Fugene 6 according to the manufacturer's recommendations. After 48 hrs, cells were stained with filipin as we have previously described [3 7]. Cells were mounted onto slides using Fluoromount-G (Southern Biotech, Birmingham, Ala.) and analyzed on a Nikon Eclipse microscope fitted with a charge-coupled-device camera (Nikon, Melville, N.Y.). […] For quantitation of filipin fluorescence, cells were seeded at 3×10^5 cells/well in 6-well dishes and allowed to settle overnight, after which the medium was replaced with medium containing 10% lipoprotein deficient serum (LPDS) for 4 days. […] Fluorescence intensity was determined using the integrated intensity function of MetaVue software; at least 150 cells were quantitated for each sample and each experiment was repeated 3 times. […]

Compound: CCCCCC1CC1CC1CC1CCCCCCCC(=O)O (stereo not shown) [DCP-LA, 8-[2-(2-pentylcyclopropylmethyl)-cyclopropyl]-octanoic acid]
- ganglioside transport block (CTB) ([1]; DCPLA, concentration not given, NPC3SV cells, FIG. 12): release the ganglioside transport block
- reduction of cholesterol storage (filipin intensity) ([2]; 100 μM DCP-LA, 24 hrs (overnight)): ~50%
- BODIPY-LacCer transport to the trans-Golgi network ([3]; 20 μM DCP-LA): the lipid can be seen in the TGN
- stored glycosphingolipid levels (VTB) [4]: decrease stored glycosphingolipid levels
- clearance of cholesterol from NPC1 cells [5]: able to induce clearance of cholesterol
- stored cholesterol levels [5]: decrease stored cholesterol levels
- filipin accumulation ([6]; DCPLA, concentration not given, NPC24-SV cell line, FIG. 11): decrease filipin accumulation

Compound: CC/C=C\C/C=C\C/C=C\C/C=C\C/C=C\C/C=C\CCC(=O)O [DHA, docosahexanoic acid]
- reduction of cholesterol storage (filipin intensity) ([2]; 10 μM DHA, 24 hrs (overnight)): ~50%

Compound: CCCCCCCCCCCCCC(=O)O[C@@H]1[C@@H](C)[C@@]2(O)[C@@H](C=C(CO)C[C@]3(O)C(=O)C(C)=C[C@@H]23)[C@@H]2C(C)(C)[C@]12OC(C)=O [PMA, phorbol-12-myristate-13-acetate]
- BODIPY-LacCer transport to the trans-Golgi network ([3]; 100 nM PMA): the lipid can be seen in the TGN
- NPC lipid storage phenotype [7]: ameliorated the NPC lipid storage phenotype

Compound: CCC/C=C/C=C/C(=O)O[C@H]1/C(=C/C(=O)OC)C[C@H]2C[C@H]([C@@H](C)O)OC(=O)C[C@H](O)C[C@@H]3C[C@H](OC(C)=O)C(C)(C)[C@](O)(C[C@@H]4C/C(=C/C(=O)OC)C[C@H](/C=C/C(C)(C)[C@]1(O)O2)O4)O3 [bryostatin 1]
- clearance of endosome-trapped cholera toxin (CTB) [1]: able to clear the endosome-trapped cholera toxin (CTB)
- glycosphingolipid accumulation (VTB) [4]: statistically significant effectiveness in decreasing the glycosphingolipid accumulation
- effect in sphingolipid assay ([8]; 0.1 nM, FIG. 14): no effect
- effect in sphingolipid assay ([8]; 1 nM, FIG. 14, increases with increasing concentration): statistically significant
- age that mice lived past ([9]; 10 μg/kg IP twice weekly starting at 30 days): > 100 days
- age that mice lived past ([9]; 20 μg/kg IP twice weekly starting at 30 days): > 100 days
- age that mice lived past ([9]; 30 μg/kg IP twice weekly starting at 30 days): > 100 days
- clearance of cholesterol from NPC1 cells [5]: able to induce clearance of cholesterol
- stored cholesterol levels [5]: most active compound showing activity in the nanomolar concentration range
- effect in cholesterol assay ([6]; 0.1 nM): no effect
- effect in cholesterol assay ([6]; 1 nM, increases with increasing concentration): statistically significant
- cholesterol clearance ([6]; 10 nM bryostatin 1, NPC24-SV cell line, FIG. 11): able to effect cholesterol 2 clearance
- concentration showing a positive therapeutic effect for human NPC1 disease cells ([6]; summary of the cholesterol and glycosphingolipid assays of Example 2): 10 to 100 nM

Compound: CC1=NS(=O)(=O)c2cc(Cl)ccc2N1 [diazoxide]
- reduction of cholesterol storage (filipin intensity) ([2]; 100 μM diazoxide, 72 hrs): ~50%
- clearance of cholesterol from NPC1 cells [5]: able to induce clearance of cholesterol

Compound: CCCCC/C=C\C/C=C\CCCCCCCC(=O)O [linoleic acid]
- filipin fluorescence, % of levels in untreated cells [2]: ~75%
- BODIPY-LacCer transport to the trans-Golgi network ([3]; 2 μg/ml linoleic acid): the lipid can be seen in the TGN
- increase of cholesterol esterification compared to untreated M12 cells ([10]; 50 μg/ml fatty acid for 2 days): greater than 2 fold
- esterification levels over untreated cells [10]: ~3.5 fold
- filipin fluorescence, % of levels in untreated cells [11]: ~75%

Compound: CCCCCCCC/C=C\CCCCCCCC(=O)O [oleic acid, cis-9-octadecenoic acid]
- filipin fluorescence, % of levels in untreated cells [2]: ~75%
- BODIPY-LacCer transport to the trans-Golgi network ([3]; 2 μg/ml oleic acid): the lipid can be seen in the TGN
- esterification levels over untreated cells [10]: ~3.5 fold
- filipin fluorescence, % of levels in untreated cells [11]: ~75%
